{"source": "patent US7723295B2", "about": "“Peptides and compounds that bind to a receptor” (Ortho-McNeil Pharmaceutical, Inc., priority 2003, dated 2010)", "key": {"human TPO receptor": {"biological_target": "T1, human TPO receptor (Homo sapiens, UniProt P40238)", "T1 construct": "expressed in transfected cells", "T1 sequence (P40238 26-635)": "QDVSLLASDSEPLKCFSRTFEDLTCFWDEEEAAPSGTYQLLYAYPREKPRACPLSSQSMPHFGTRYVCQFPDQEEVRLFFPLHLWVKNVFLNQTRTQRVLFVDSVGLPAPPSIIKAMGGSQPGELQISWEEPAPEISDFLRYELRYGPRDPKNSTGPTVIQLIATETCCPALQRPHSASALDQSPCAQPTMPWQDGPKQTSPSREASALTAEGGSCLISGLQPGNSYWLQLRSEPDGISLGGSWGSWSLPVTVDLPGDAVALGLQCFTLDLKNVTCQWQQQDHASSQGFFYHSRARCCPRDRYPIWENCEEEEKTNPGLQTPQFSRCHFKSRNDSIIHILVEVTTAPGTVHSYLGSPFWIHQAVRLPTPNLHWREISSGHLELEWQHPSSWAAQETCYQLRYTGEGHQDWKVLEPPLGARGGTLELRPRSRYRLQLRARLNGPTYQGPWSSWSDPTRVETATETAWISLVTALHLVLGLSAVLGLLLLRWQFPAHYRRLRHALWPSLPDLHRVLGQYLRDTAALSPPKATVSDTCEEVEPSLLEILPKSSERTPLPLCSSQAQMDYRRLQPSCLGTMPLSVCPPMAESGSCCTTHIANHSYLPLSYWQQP", "test": "relative luminescent units assay, murine cells expressing human TPO receptor and fos-promoter luciferase reporter", "assay_type": "cell-based", "settings": "FIG. 1; three batches of TPO Compound No. 1 vs one batch of prior art peptide compound", "text": "The assay employs murine cells engineered to stably express the human TPO receptor and a luciferase reporter construct driven by the fos promoter."}, "platelet counts": {"test_system": "platelet counts", "test": "Phase I pharmacodynamics, elevation in platelet counts", "assay_type": "in vivo, human", "settings": "for n (>1.5×), subjects with platelet increase / n (>2×), subjects with platelet increase / n (>3×), subjects with platelet increase / n (>4×), subjects with platelet increase: N=6"}}, "data": [{"substance": "(H-IEGPTLRQ(2-Nal)LAAR(Sar))2K-NH2 [TPO Compound No. 1]", "values": [{"measurement": "activity (relative luminescent units), compared between compounds", "setting": "human TPO receptor", "value": "similar"}, {"measurement": "Pltmax, first value (mean peak platelet count)", "setting": "platelet counts; 0.375 μg/kg single i.v.", "value": "315 10^9/L"}, {"measurement": "Pltmax, range in brackets", "setting": "platelet counts; 0.375 μg/kg single i.v.", "value": "(214-482) 10^9/L"}, {"measurement": "Pltmax, second value after the slash (footnote not given)", "setting": "platelet counts; 0.375 μg/kg single i.v.", "value": "309 10^9/L"}, {"measurement": "Pltmax/Plt0, first value (mean)", "setting": "platelet counts; 0.375 μg/kg single i.v.", "value": "1.42/1.42"}, {"measurement": "Pltmax/Plt0, range in brackets", "setting": "platelet counts; 0.375 μg/kg single i.v.", "value": "(1.08-1.81)"}, {"measurement": "Pltmax/Plt0, second value after the slash (footnote not given)", "setting": "platelet counts; 0.375 μg/kg single i.v.", "value": "1.42/1.42"}, {"measurement": "n (>1.5×), subjects with platelet increase", "setting": "platelet counts; 0.375 μg/kg single i.v.", "value": 3}, {"measurement": "n (>2×), subjects with platelet increase", "setting": "platelet counts; 0.375 μg/kg single i.v.", "value": 0}, {"measurement": "n (>3×), subjects with platelet increase", "setting": "platelet counts; 0.375 μg/kg single i.v.", "value": 0}, {"measurement": "n (>4×), subjects with platelet increase", "setting": "platelet counts; 0.375 μg/kg single i.v.", "value": 0}, {"measurement": "Pltmax, first value (mean peak platelet count)", "setting": "platelet counts; 0.75 μg/kg single i.v.", "value": "347 10^9/L"}, {"measurement": "Pltmax, range in brackets", "setting": "platelet counts; 0.75 μg/kg single i.v.", "value": "(232-495) 10^9/L"}, {"measurement": "Pltmax, second value after the slash (footnote not given)", "setting": "platelet counts; 0.75 μg/kg single i.v.", "value": "335 10^9/L"}, {"measurement": "Pltmax/Plt0, first value (mean)", "setting": "platelet counts; 0.75 μg/kg single i.v.", "value": "1.63/1.63"}, {"measurement": "Pltmax/Plt0, range in brackets", "setting": "platelet counts; 0.75 μg/kg single i.v.", "value": "(1.15-2.12)"}, {"measurement": "Pltmax/Plt0, second value after the slash (footnote not given)", "setting": "platelet counts; 0.75 μg/kg single i.v.", "value": "1.63/1.63"}, {"measurement": "n (>1.5×), subjects with platelet increase", "setting": "platelet counts; 0.75 μg/kg single i.v.", "value": 3}, {"measurement": "n (>2×), subjects with platelet increase", "setting": "platelet counts; 0.75 μg/kg single i.v.", "value": 1}, {"measurement": "n (>3×), subjects with platelet increase", "setting": "platelet counts; 0.75 μg/kg single i.v.", "value": 0}, {"measurement": "n (>4×), subjects with platelet increase", "setting": "platelet counts; 0.75 μg/kg single i.v.", "value": 0}, {"measurement": "Pltmax, first value (mean peak platelet count)", "setting": "platelet counts; 1.5 μg/kg single i.v.", "value": "430 10^9/L"}, {"measurement": "Pltmax, range in brackets", "setting": "platelet counts; 1.5 μg/kg single i.v.", "value": "(238-597) 10^9/L"}, {"measurement": "Pltmax, second value after the slash (footnote not given)", "setting": "platelet counts; 1.5 μg/kg single i.v.", "value": "458 10^9/L"}, {"measurement": "Pltmax/Plt0, first value (mean)", "setting": "platelet counts; 1.5 μg/kg single i.v.", "value": 1.91}, {"measurement": "Pltmax/Plt0, range in brackets", "setting": "platelet counts; 1.5 μg/kg single i.v.", "value": "(1.01-2.59)"}, {"measurement": "Pltmax/Plt0, second value after the slash (footnote not given)", "setting": "platelet counts; 1.5 μg/kg single i.v.", "value": 2.13}, {"measurement": "n (>1.5×), subjects with platelet increase", "setting": "platelet counts; 1.5 μg/kg single i.v.", "value": 4}, {"measurement": "n (>2×), subjects with platelet increase", "setting": "platelet counts; 1.5 μg/kg single i.v.", "value": 3}, {"measurement": "n (>3×), subjects with platelet increase", "setting": "platelet counts; 1.5 μg/kg single i.v.", "value": 0}, {"measurement": "n (>4×), subjects with platelet increase", "setting": "platelet counts; 1.5 μg/kg single i.v.", "value": 0}, {"measurement": "Pltmax, first value (mean peak platelet count)", "setting": "platelet counts; 2.25 μg/kg single i.v.", "value": "454 10^9/L"}, {"measurement": "Pltmax, range in brackets", "setting": "platelet counts; 2.25 μg/kg single i.v.", "value": "(254-576) 10^9/L"}, {"measurement": "Pltmax, second value after the slash (footnote not given)", "setting": "platelet counts; 2.25 μg/kg single i.v.", "value": "500 10^9/L"}, {"measurement": "Pltmax/Plt0, first value (mean)", "setting": "platelet counts; 2.25 μg/kg single i.v.", "value": 2.15}, {"measurement": "Pltmax/Plt0, range in brackets", "setting": "platelet counts; 2.25 μg/kg single i.v.", "value": "(1.28-2.98)"}, {"measurement": "Pltmax/Plt0, second value after the slash (footnote not given)", "setting": "platelet counts; 2.25 μg/kg single i.v.", "value": 2.33}, {"measurement": "n (>1.5×), subjects with platelet increase", "setting": "platelet counts; 2.25 μg/kg single i.v.", "value": 4}, {"measurement": "n (>2×), subjects with platelet increase", "setting": "platelet counts; 2.25 μg/kg single i.v.", "value": 4}, {"measurement": "n (>3×), subjects with platelet increase", "setting": "platelet counts; 2.25 μg/kg single i.v.", "value": 0}, {"measurement": "n (>4×), subjects with platelet increase", "setting": "platelet counts; 2.25 μg/kg single i.v.", "value": 0}, {"measurement": "Pltmax, first value (mean peak platelet count)", "setting": "platelet counts; 3.0 μg/kg single i.v.", "value": "685 10^9/L"}, {"measurement": "Pltmax, range in brackets", "setting": "platelet counts; 3.0 μg/kg single i.v.", "value": "(188-979) 10^9/L"}, {"measurement": "Pltmax, second value after the slash (footnote not given)", "setting": "platelet counts; 3.0 μg/kg single i.v.", "value": "750 10^9/L"}, {"measurement": "Pltmax/Plt0, first value (mean)", "setting": "platelet counts; 3.0 μg/kg single i.v.", "value": 3.21}, {"measurement": "Pltmax/Plt0, range in brackets", "setting": "platelet counts; 3.0 μg/kg single i.v.", "value": "(1.25-4.52)"}, {"measurement": "Pltmax/Plt0, second value after the slash (footnote not given)", "setting": "platelet counts; 3.0 μg/kg single i.v.", "value": 3.50}, {"measurement": "n (>1.5×), subjects with platelet increase", "setting": "platelet counts; 3.0 μg/kg single i.v.", "value": 5}, {"measurement": "n (>2×), subjects with platelet increase", "setting": "platelet counts; 3.0 μg/kg single i.v.", "value": 5}, {"measurement": "n (>3×), subjects with platelet increase", "setting": "platelet counts; 3.0 μg/kg single i.v.", "value": 4}, {"measurement": "n (>4×), subjects with platelet increase", "setting": "platelet counts; 3.0 μg/kg single i.v.", "value": 1}]}]}
